The values that follow come from US11739337B2, “Gadusol derivative production in bacteria” (Oregon State University, priority 2019, dated 2023).

Read-outs that look alike come from different tables or passages of the source.

The conditions of data set [1]: cited from earlier work.
For data set [2] the following is noted: background statement; cited from earlier work.
The conditions of data set [3]: comparison value for shinorine; cited from earlier work.
A short description of a further data set: Solubility in methanol. The data set is classed as physicochemical.
Data set [4] can be described thus: Molar extinction coefficient by UV absorbance at 340 nm. The data set is classed as physicochemical. Conditions: 50 mM phosphate buffer at pH 7.0, absorbance at 340 nm; in M-1 cm-1 (unit assumed). How it is done: S. coelicolor A(3)2 pTMAO-G3 was cultured as described above at larger scales and 225 mL of S. coelicolor pTMAO-G3 culture broth was dried to ˜20 mL and passed through a C18 solid phase extraction (SPE) column. Gadusol and gadusporines were mostly un-retained, however, washing with water for 1-2 column volumes (CVs) eluted the remaining compounds. The eluent was combined and dried to ˜20 mL, which was applied directly to a 300 mL Bio-Rad AG®-1×8 (acetate form) column. After washing with 2 L of water, 500 mM acetic acid was used to elute gadusol and gadusporines. All fractions containing both gadusol and gadusporines were combined and fractions lacking gadusol but containing gadusporines were combined separately and dried. The gadusol-free fraction was further purified using the preparative HPLC as described previously to give gadusporine A (9.0 mg) (see FIG. 5A) as two different isomers. All NMR experiments were performed on a 700 MHz Bruker NMR Spectrometer with a cryo probe at the Oregon State University (OSU) NMR facility. The molar extinction coefficient of gadusporine A was determined by dissolving 0.6 mg in 50 mM phosphate buffer at pH 7.0 in a 25 mL volumetric flask then measuring UV absorbance at 340 nm.

A short description of data set [5]: UV absorbance maximum (λmax). Conditions: for UV maximum: under acidic conditions, HPLC of culture broth. The data set is classed as physicochemical. How it is done:
Gadusporine A (see FIG. 5A), a yellow-brown solid, UV (50 mM phosphate buffer pH 7) λmax 340 nm, (50 mM acetic acid pH 3) λmax 338 nm. ^1H NMR (700 MHz, D2O) and ^13C NMR (175 MHz, D2O) see Table 3. HR-ESIMS m/z 349.1239 [M+H]^+ (calculated for C13H20N2O9, 349.1247).
Gadusporine A was produced at 20 mg/L. Gadusol was produced by pTMAO-G1 at of 29 mg/L.
Shinorine has been reported to have λmax=330 nm at pH 1.7 and λmax=334 nm at pH 7. […] Gadusporine A has a molar extinction coefficient ε=49,400, as measured in 50 mM phosphate buffer at pH 7.0, which is slightly higher than shinorine (ε=44,000), thus stronger UV absorbance activity.

Turning to `COC1=C(O)CC(O)(CO)C(O)C1=O` (centres unmarked) [Gadusol, gadusol], the values for the UV absorbance maxima in data set [1] (pH 2.5) and in data set [1] (pH 7.0) were 268 nm and 296 nm, respectively. In data set [2], the antioxidant activity entry is listed as “antioxidant activity”.

With `COC1=C(NCC(=O)O)C[C@@](O)(CO)C/C1=N\[C@@H](CO)C(=O)O` [Shinorine, shinorine], the λmax in data set [1] (pH 1.7, reported) is listed as 330 nm; in data set [1] (pH 7, reported), 334 nm. Also, the “molar extinction coefficient ε” value in data set [3] is recorded as 44,000. For the same compound, the solubility in methanol result in “Solubility in methanol” is listed as “readily dissolved in methanol”.

Regarding `COC1=C(NCC(=O)O)C[C@@](O)(CO)[C@@H](O)/C1=N\[C@@H](CO)C(=O)O` [gadusporine A, (S)-2-(((5R,6S,E)-3-((carboxymethyl)amino)-5,6-dihydroxy-5-(hydroxymethyl)-2-methoxycyclohex-2-en-1-ylidene)amino)-3-hydroxypropanoic acid], in data set [4], the “molar extinction coefficient ε” value is reported as 49,400. In addition, the figures for the “UV λmax” value in data set [5] (50 mM acetic acid pH 3) and in data set [5] (50 mM phosphate buffer pH 7) were 338 nm and 340 nm, respectively. Further, the figures for the λmax in data set [5] (pH 2.0) and in data set [5] (pH 7.0) were 338 nm and 340 nm, respectively. This compound came in with a UV maximum in data set [5] of 338 nm.

As for `COC1=C(NCC(=O)O)C[C@@](O)(CO)[C@@H](O)/C1=N\[C@@H](C)C(=O)O` [gadusporine B, (S)-2-(((5R,6S,E)-3-((carboxymethyl)amino)-5,6-dihydroxy-5-(hydroxymethyl)-2-methoxycyclohex-2-en-1-ylidene)amino)propanoic acid], the results for the “UV λmax” value in data set [5] (50 mM acetic acid pH 3) and in data set [5] (50 mM phosphate buffer pH 7) were 338 nm and 340 nm, respectively. The same compound displayed a UV maximum in data set [5] of 338 nm. In addition, the solubility in methanol entry in the data set “Solubility in methanol” was “not very soluble in methanol”.

With `C/C=C/NC1=C(OC)C(=NCC(=O)O)CC(O)(CO)C1` (centres unmarked) [palythene], in data set [1] (background, no pH given), the λmax was 360 nm.

Turning to `C/C=C\NC1=C(OC)C(=NCC(=O)O)CC(O)(CO)C1` (centres unmarked) [usujirene], in data set [1] (background, no pH given), the λmax is given as 357 nm.

As for prasiolin, the λmax in data set [1] (background, no pH given) was 324 nm.
